Assay results published in US20120149775A1, “METHODS FOR PREVENTING AND IMPROVING SKIN ELASTIC PROPERTY LOSS” (SHISEIDO COMPANY, LTD., priority 2010, published 2012).

Columns and labels:
Type in all cases: cell-based
mouse 3T3-L1 cell = test: Mouse fibroblast proliferation (alamar Blue); conditions: 48 hours
Procedure: The cell employed was a mouse 3T3-L1 cell. This cell was inoculated. at 3×10^4 cells/mL to a commercially available 24-well culture plate (353047, FALCON, Becton, Dickinson and Company Japan), where it was cultured in a commercially available cell culture medium (D-MEM, 11885084, GIBCO, Life Technologies Japan Ltd.) supplemented with 10% bovine serum (16010159, GIBCO, Life Technologies Japan Ltd.). The cell was cultured for about 6 hours in 5% CO2 and saturated water vapor atmosphere at 37° C. Thereafter, the culture medium for culturing the mouse fibroblast was switched to a medium which was the above-mentioned cell culture medium supplemented with 0.5% bovine serum (hereinafter referred to as “mouse fibroblast proliferation evaluation medium”), where the mouse fibroblast was cultured for 12 hours in 5% CO2 and saturated water vapor atmosphere at 37° C. When investigating the effects of saturated and unsaturated fatty acids on the proliferation of the fibroblast, 5 μM and 10 μM palmitic acid (S-33, Wako Pure Chemical Industries, Ltd.), 5 μM and 10 μM oleic acid (07501, Sigma Aldrich Japan K.K.) or 1 μM, 3 μM and 10 μM stearic acid ([…], Sigma Aldrich Japan. K.K.) was added after 12 hours to the mouse fibroblast proliferation evaluation medium), and the fibroblast was cultured for 48 hours in 5% CO2 and saturated water vapor atmosphere at 37° C. As a control, the cell was cultured in a culture medium without these saturated fatty acids and unsaturated fatty acid. […] The cell proliferation rate (%) was calculated as a percentage of the quotient obtained by dividing the fluorescent intensity of the alamar Blue under each experiment condition by the fluorescent intensity in the control group supplemented with no saturated or unsaturated fatty acids.

[1] = test system: type I collagen α chain gene expression; test: Type I collagen α chain gene expression in mouse fibroblast (real-time PCR); conditions: for suppressive effect on the gene expression of type I collagen α chain: data not shown
Procedure: (§1) The cell culture and the addition of palmitic acid were conducted similarly to Example 1. The mouse fibroblast was inoculated to and incubated in a commercially available 12-well culture plate (353043, FALCON, Becton, Dickinson and Company Japan) at 3×10^4 cells/mL. The culture medium was removed using an aspirator, and each well was washed twice with each 2 ml of PBS. An RNA was extracted from each cell in each well using an RNeasy Protect Kit (74104, Qiagen) according to Manufacturer's instructions. A cDNA was produced according to a standard method and used in a real-time PCR. This real-time PCR employed LightCycler (registered trademark) FastStart DNA Master^PLUS SYBR Green I (Catalog No. 03 515 885 001, Roche Diagnostic K.K.). For amplifying type I collagen α chain, elastin, matrix metalloproteinase 13 and 28S rRNA genes, the forward and reverse primers of SEQ ID NO: 1 and 2, SEQ ID NO: 3 and 4, SEQ ID NO: 5 and 6 and SEQ ID NO: 7 and 8, respectively, were employed. The PCR was conducted under a reaction condition involving 1 cycle of 95° C. for 10 minutes and 35 cycles of 95° C. for 15 seconds, 60° C. for 5 seconds and 72° C. for 5 seconds. The expression levels of type I collagen α chain, elastin and matrix metalloproteinase 13 gene were analyzed by using LightCycler Software Ver. 3.5 (Roche Diagnostic K.K.) and normalized on the basis of the expression level of 28S rRNA. The gene expressions level of the type I collagen α chain, elastin and matrix metalloproteinase 13 were calculated as percentages of the quotients obtained by dividing the gene expression rates (%) under each experimental condition by the gene expression levels in the control groups containing no palmitic acid.

elastin gene expression [2] = test: Elastin gene expression in mouse fibroblast (real-time PCR); conditions: for suppressive effect on the gene expression of elastin: data not shown
Procedure: as §1

[3] = test system: matrix metalloproteinase 13 gene expression; test: Matrix metalloproteinase 13 gene expression in mouse fibroblast (real-time PCR); conditions: for promotive effect on the gene expression of matrix metalloproteinase 13: data not shown
Procedure: as §1

human fibroblast = test: Human fibroblast proliferation (alamar Blue); conditions: 5 μM to 30 μM, dependent on concentration (FIG. 7)
Procedure: Thereafter, alamar Blue (Trade mark, DAL1025, Invitrogen, Life Technologies Japan Ltd.) was added to the culture medium at a final concentration of 10%, and its supernatant was examined for the fluorescent intensity 2 hours later with an excitation wavelength of 544 nm and a fluorescent intensity of 590 nm in accordance with the manufacture's instruction. The cell proliferation rate (%) was calculated as a percentage of the quotient obtained by dividing the fluorescent intensity of the alamar Blue under each experiment condition by the fluorescent intensity in the control group supplemented with no saturated or unsaturated fatty acids. The cell culture, the addition of palmitic acid and the determination of the % of proliferation of the fibroblast were conducted similarly to Example 1. The human fibroblast (CC-2509, Lonza Japan Ltd.) was incubated for 6 hours in a commercially available cell culture medium (D-MEM, 11885084, GIBCO, Life Technologies Japan Ltd.) supplemented with 10% of fetal bovine serum (FBS) (Biowest). Thereafter, the culture medium for incubating the human fibroblast was switched to the cell culture medium supplemented with 0.5% of fetal bovine serum (hereinafter referred to as “human fibroblast proliferation evaluation medium”) and the human fibroblast was incubated at 37° C. and 5% CO2 under a saturated water vapor atmosphere for 12 hours. […]

[4] = test system: type I collagen α chain gene expression; test: Type I collagen α chain gene expression in human fibroblast (real-time PCR); conditions: 10 μM and 30 μM, dependent on concentration (FIG. 8)
Procedure: (§2) The culture medium was removed using an aspirator, and each well was washed twice with each 2 ml of PBS. An RNA was extracted from each cell in each well using an RNeasy Protect Kit (74104, Qiagen) according to Manufacturer's instructions. A cDNA was produced according to a standard method and used in a real-time PCR. This real-time PCR employed LightCycler (registered trademark) FastStart DNA Master^PLUS SYBR Green I (Catalog No. 03 515 885 001, Roche Diagnostic K.K.). […] The expression levels of type I collagen α chain, elastin and matrix metalloproteinase 13 gene were analyzed by using LightCycler Software Ver. […] The gene expressions level of the type I collagen α chain, elastin and matrix metalloproteinase 13 were calculated as percentages of the quotients obtained by dividing the gene expression rates (%) under each experimental condition by the gene expression levels in the control groups containing no palmitic acid. […] The quantification of gene expression was conducted similarly to Example 2. […] The % gene expressions of the type I collagen α chain, elastin and matrix metalloproteinase 1 were calculated as percentages of the quotients obtained by dividing the gene expression levels under each experimental condition by the gene expression levels in the control groups containing no palmitic acid.

elastin gene expression [5] = test: Elastin gene expression in human fibroblast (real-time PCR); conditions: 3 μM to 30 μM, dependent on concentration (FIG. 9)
Procedure: as §2

[6] = test system: matrix metalloproteinase 1 gene expression; test: Matrix metalloproteinase 1 gene expression in human fibroblast (real-time PCR); conditions: 10 μM and 30 μM, dependent on concentration (FIG. 10)
Procedure: as §2

mouse fibroblast = test: Effect of EPA and palmitic acid on fibroblast proliferation (alamar Blue); conditions: palmitic acid at 10 μM alone (FIG. 11)
Procedure: The cell employed was a mouse 3T3-L1 cell. This cell was inoculated. at 3×10^4 cells/mL to a commercially available 24-well culture plate (353047, FALCON, Becton, Dickinson and Company Japan), where it was cultured in a commercially available cell culture medium (D-MEM, 11885084, GIBCO, Life Technologies Japan Ltd.) supplemented with 10% bovine serum (16010159, GIBCO, Life Technologies Japan Ltd.). The cell was cultured for about 6 hours in 5% CO2 and saturated water vapor atmosphere at 37° C. Thereafter, the culture medium for culturing the mouse fibroblast was switched to a medium which was the above-mentioned cell culture medium supplemented with 0.5% bovine serum (hereinafter referred to as “mouse fibroblast proliferation evaluation medium”), where the mouse fibroblast was cultured for 12 hours in 5% CO2 and saturated water vapor atmosphere at 37° C. […] The cell proliferation rate (%) was calculated as a percentage of the quotient obtained by dividing the fluorescent intensity of the alamar Blue under each experiment condition by the fluorescent intensity in the control group supplemented with no saturated or unsaturated fatty acids. […]

promotive effect on the gene expression of matrix metalloproteinase 13 [3] | matrix metalloproteinase 13 gene expression ([3]; 10 μM, vs control (FIG. 6)) | matrix metalloproteinase 1 gene expression [6] | SMILES | cell proliferation (mouse 3T3-L1 cell; 5 μM and 10 μM, vs control (FIG. 2)) | suppressive effect on the gene expression of type I collagen α chain [1] | suppressive effect on the gene expression of elastin (elastin gene expression [2]) | cell proliferation (mouse 3T3-L1 cell; 10 μM, vs control (FIG. 1)) | type I collagen α chain gene expression ([1]; 10 μM, vs control (FIG. 4)) | elastin gene expression (elastin gene expression [2]; 10 μM, vs control (FIG. 5)) | cell proliferation (human fibroblast) | type I collagen α chain gene expression [4] | elastin gene expression (elastin gene expression [5]) | cell proliferation (mouse fibroblast) | cell proliferation (mouse 3T3-L1 cell; 1 μM to 10 μM, vs control (FIG. 3))
did not have |  |  | CCCCCCCC/C=C\CCCCCCCC(=O)O [oleic acid] | statistically significant reduction | did not have a suppressive effect | did not have a suppressive effect |  |  |  |  |  |  |  | 
 | statistically significant increase | statistically significant increase | CCCCCCCCCCCCCCCC(=O)O [palmitic acid] |  |  |  | statistically significant reduction | statistically significant reduction | statistically significant reduction | statistically significant reduction | statistically significant reduction | statistically significant reduction | reduced markedly | 
did not have |  |  | CCCCCCCCCCCCCCCCCC(=O)O [stearic acid] |  | did not have a suppressive effect | did not have a suppressive effect |  |  |  |  |  |  |  | no statistically significant reduction
